Data set [1] deals with IBD patients. Conditions: cited from earlier work.
Data set [2] relates to mice with ulcerative colitis in TNBS modeling. Briefly: Prevention of TNBS-induced IBD in mice, Example 3. It counts as in vivo, BALB/c mice. As to the method: Experimental Animals: the same as in Example 2.
Reagents: the same as in Example 2.
Model preparation: the same as in Example 2.
Experimental animal groups: model group, prevention group and control group (n=8). The prevention group: BALB/c mice were treated therapeutically with CBLB502 (3.2 mg/kg) before TNBS administration, and then the mice were given TNBS and normal feeding two days. The model group was normal feeding two days after TNBS administration. The control mice received 38% ethanol alone by using the same method described above, and normal feeding.
Test contents and test methods: the same as in Example 2.

For data set [3] the test system is unchanged. Put plainly: Treatment of TNBS-induced ulcerative colitis (IBD) in mice, Example 2. The format is in vivo, BALB/c mice. How it is done:
Experimental Animal: Male BALB/c mice (7-8 weeks old, 25±5 g) were obtained from Experimental Animal Center of Academy of Military Medical Sciences (Beijing, China). Mice were provided sterile food and water, and 12 h light/12 h dark cycle. All animal experiments were approved by the Institutional Animal Care and Use Committee at Academy of Military Medical Sciences.
Reagents: 2,4,6-trinitrobenzene sulfonic acid (TNBS, were purchased from Sigma Chemical Co.), CZLC331 (prepared in Example 1), RT PCR kit (ID isFSK100, purchased from Toyobo Biotechnology Co., Ltd.).
Model preparation: Mice (hunger for 36 h) were anesthetized with isoflurane using anesthesia machine. To induce IBD, 150 mg/kg of TNBS (Sigma-Aldrich) in 38% ethanol (to break the intestinal epithelial barrier) was administered by the mouse gavage needle equipped with a 1 ml syringe, what the diameter of silicone tube is 2. 0 mm and the length is about 10 cm, the gavage needle was advanced into the rectum until the tip was 4 cm proximal to the anal verge. The total injection volume was 100 μl.
Experimental animal groups: model group, treatment group and control group (n=8). The control mice received 38% ethanol alone by using the same method described above, and normal feeding two days. The treatment group: BALB/c mice were treated therapeutically with CBLB502 (3.2 mg/kg) at 0.5 h after TNBS administration. At the same time, BALB/c mice were treated therapeutically with CBLB502 (0.2-6.4 mg/kg) from 0.5 h to 8 h after TNBS administration, and normal feeding two days. The mice of model group were normal feeding two days after TNBS administration.
Mice were monitored for the appearance of diarrhea, changes of body weight, and overall mortality. At the end of the experiment after TNBS administration two days, surviving mice were killed, blood samples were collected by cardiac puncture, and a 7-cm segment of the colon was excised for macroscopic (FIG. 1, FIG. 4 left, and FIG. 5) and microscopic damage evaluation (FIG. 2, FIG. 4 right, and FIG. 6). And the end of the colon after washing using physiological saline was kept at −80° C. frozen for follow-up testing.
2. Histological examination: The colonic samples were fixed in 4% buffered formalin overnight and then transferred to 70% ethanol, embedded in paraffin for sectioning, and then stained with hematoxylin and eosin (H&E) to examine the histological differences.

Data set [4] has as its system TLR family. Briefly: Expression of TLR family in colon by RT-PCR after treatment in TNBS modeling. Conditions: 3.2 mg/kg 4 h after TNBS. It counts as in vivo, BALB/c mice. The source says: The colon samples were removed at the indicated times, washed with phosphate-buffered saline (pH 7.2), and cut in small pieces. Total RNA of colon samples what were control group, modeling group and treatment group were extracted by Total RNA kits II (Omega, Japan) according to the manufacturers' instructions, and then reverse-transcribed by the Reverse Transcription System (Sigma, USA). Subsequently, the TLRs and β-actin were amplified by PCR using the following primers (Table 1). The reaction system of PCR was 500, Ex Taq 0.250, 10× buffer 5 μl, dNTP 5 μl, template 2 μl, the upstream and downstream primers 1 μl, ddH2O 35.75 μl. The reaction condition of PCR is 95° C. 5 min, 95° C. 45 sec, 62° C. 45 sec, 72° C. 1 min, total 25 cycles, and then 72° C. 5 min. PCR products were identified on 2% agarose-gel electrophoresis followed by image analysis software.

The conditions of data set [5]: statement, no test described; cited from earlier work.
Where [6] appears, read: given 0.5 h before TNBS modeling, two days, versus model group.

The values that follow come from US9259453B2, “Use of salmonella flagellin derivative in preparation of drug for preventing and treating inflammatory bowel diseases” (priority 2011, dated 2016).

“Also recorded” adds a separate entry of the source.

Turning to `O=C(O)c1cc(/N=N/c2ccc(S(=O)(=O)Nc3ccccn3)cc2)ccc1O` [sulfasalazine], in data set [1] (after taking the drug), the side effects result is given as “nausea, rash, neutropenia”. In data set [1] (clinical drug), the effective rate entry is “about 90%” and the markedly effective rate was 50%. For the same compound, the “onset (time until symptoms improved)” value in data set [1] (clinical) is on record as “about two”.
Consider “CZLC331: Salmonella flagellin derivative, SEQ ID NO: 3: Tat protein transduction peptide plus flagellin residues 1-176 and 402-505 joined by flexible linker; 331 amino acids”, for which, in data set [2] (setting [6]), the “clinical signs: blood in the stool, eat less, move less” value was “reduced” and the “colon: congestion, edema, hemorrhage” value was “began reduce”. For the same compound, in data set [2] (given before TNBS modeling), the “prevention of IBD (overall)” value is reported as “protective effects”. In data set [3] (0.2-6.4 mg/kg intraperitoneal, 0.5 h to 8 h after TNBS, two days, versus model group), the “clinical signs: blood in the stool, feeding/water intake, activity” value is “feeding/water intake of mice return to normal, the activities increased significantly and reduce blood in the stool; also recorded: reduced”. For the same compound, the “colon appearance: congestion, edema, hemorrhage, ulcers” value in data set [3] (0.2-6.4 mg/kg, 0.5 h to 8 h after TNBS, two days, versus model group) is listed as “significantly reduced; also recorded: began reduce”. Further, the “colonic mucosa HE staining: cell structure, goblet cells, lymphocyte and neutrophil infiltration” value in data set [3] (0.2-6.4 mg/kg, 0.5 h to 8 h after TNBS, versus model group) is “significantly reduced; also recorded: structures of cells were arranged in neat, a small number of goblet cells and lymphocyte and neutrophil infiltration were disappeared; also recorded: well results for treating”. Moreover, the cure rate in data set [3] (TNBS mice, intraperitoneal CZLC331) is recorded as 70%. Besides, the “onset (time after administration to effect)” value in data set [3] (examples 2 and 3, all animals) was found to be 24 h. Besides, in data set [3] (improvement of feeding, activity and blood in stool, all animals of treatment group and prevention group (examples 2 and 3)), the effective rate is reported as 100%. For the same compound, the “effective rate of recovered colon mucosa” value in data set [3] (treatment group) was determined as 75%. In data set [4] (raised in model group), the “expression of TLR6” value is given as “no significant differences”, the “expression of TLR7” value is recorded as “no significant differences” and the “expression of TLR8” value was “would change”. Moreover, in data set [4] (versus model group), the “expression of TLR family” value is “significant differences with the model group”. In data set [5], the side effects entry is “no significant side effects” and the toxicity entry is “non-toxic”.
